The values below come from PubChem BioAssay (NCI).

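Protocol summary: plate cells (96-well), add compound at 5 concentrations, incubate 48 h, interpolate endpoints linearly. At the GI50, growth is halved. The concentration for full growth arrest is given as TGI.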

Test systems include UACC-257 melanoma; HL-60(TB) leukemia; UO-31 renal; SF-295 CNS; SK-MEL-2 melanoma; SN12C renal; RXF 393 renal; OVCAR-3 ovarian; NCI/ADR-RES ovarian.
Assay in all cases: NCI tumour cell line growth inhibition, 48 h

For the molecule `CC1(Cl)C(=O)NC(=O)N(C2CC(N=[N+]=[N-])C(CO)O2)C1N=[N+]=[N-]` (stereo not drawn), the TGI in the assay on UACC-257 melanoma, with HL-60(TB) leukemia, in the assay on UO-31 renal, with SF-295 CNS, with SK-MEL-2 melanoma and in the assay on SN12C renal was over 100 µM each time. Also, the TGI with RXF 393 renal and in the assay on OVCAR-3 ovarian was over 100 µM in each case.

With `O=C1C=CC(=Nc2ccc3c(c2)C(Br)c2ccccc2-3)O1` (stereo not drawn), the TGI in the assay on UACC-257 melanoma was over 100 µM; in the assay on HL-60(TB) leukemia it was over 100 µM; with UO-31 renal, over 100 µM; in the assay with SF-295 CNS it was over 100 µM; with SN12C renal it was 49.9 µM; in the assay on RXF 393 renal, over 100 µM. In the assay with OVCAR-3 ovarian, this molecule had a TGI of over 100 µM.

With `CC(=O)Nc1ccccc1Sc1ccccc1`, the TGI in the assay with UACC-257 melanoma, in the assay with HL-60(TB) leukemia, in the assay with UO-31 renal, with SF-295 CNS, in the assay on SK-MEL-2 melanoma and in the assay on SN12C renal was over 100 µM throughout. Further, the TGI in the assay with RXF 393 renal and with OVCAR-3 ovarian was over 100 µM in each case.

With `Cc1cc2c(cc1C)[n+](=O)c(C(=O)CC(=O)C(=O)Nc1c(C(C)C)cccc1C(C)C)c(C)n2[O-]`, the TGI in the assay with UACC-257 melanoma, with UO-31 renal, in the assay with SF-295 CNS, in the assay with SK-MEL-2 melanoma, in the assay on SN12C renal and in the assay on RXF 393 renal was over 100 µM in each case. In the assay on OVCAR-3 ovarian, this molecule had a TGI of over 100 µM.

Turning to `N#CC(C(=N/O)/C(=N/O)C(C#N)c1ccc(Cl)cc1)c1ccc(Cl)cc1` (stereo not drawn), the TGI in the assay with UACC-257 melanoma was over 100 µM; in the assay on UO-31 renal, over 100 µM; with SF-295 CNS, over 100 µM; in the assay on SK-MEL-2 melanoma, over 100 µM; in the assay with SN12C renal it was over 100 µM; in the assay with RXF 393 renal, 98.7 µM. Besides, the TGI in the assay on OVCAR-3 ovarian is over 100 µM.

Regarding `N#C/C(=C/c1ccsc1)C(=O)c1ccccc1`, the TGI with UACC-257 melanoma, in the assay on HL-60(TB) leukemia, in the assay on UO-31 renal, with SF-295 CNS, in the assay on SK-MEL-2 melanoma and with SN12C renal was over 100 µM each time. For the same molecule, the TGI in the assay on RXF 393 renal and in the assay with OVCAR-3 ovarian was over 100 µM throughout.

Turning to `O=C1OCc2c1cc1ccc(O)c(OC3OC(CO)C(O)C(O)C3O)c1c2-c1ccc2c(c1)OCO2` (stereo not drawn), the GI50 is 37.9 µM in the assay on UACC-257 melanoma, 27.2 µM in the assay on UO-31 renal, 33.5 µM with SK-MEL-2 melanoma and 64.6 µM with OVCAR-3 ovarian. The TGI with UACC-257 melanoma, in the assay with UO-31 renal, in the assay on SF-295 CNS, in the assay on SK-MEL-2 melanoma, in the assay with SN12C renal and in the assay on RXF 393 renal was over 100 µM throughout. In the assay on OVCAR-3 ovarian, this molecule yielded a TGI of over 100 µM.

On to `C=C(CN1CCc2ccccc2C1)c1ccc(C(=O)Nc2cnccn2)cc1`, for which the GI50 in the assay on UACC-257 melanoma is 83.6 µM; with HL-60(TB) leukemia it was 3.55 µM; in the assay on UO-31 renal, 24.4 µM; in the assay with SF-295 CNS, 19.1 µM; with SK-MEL-2 melanoma, 46.6 µM; in the assay with SN12C renal, 50.4 µM. The figures for the GI50 with NCI/ADR-RES ovarian, in the assay with RXF 393 renal and in the assay with OVCAR-3 ovarian were 4.95 µM, 39 µM and 22.1 µM, respectively. Besides, the TGI in the assay on UACC-257 melanoma is over 100 µM; in the assay with HL-60(TB) leukemia, 14 µM; with UO-31 renal, over 100 µM; in the assay on SF-295 CNS it was 73 µM; with SK-MEL-2 melanoma, over 100 µM; with SN12C renal, over 100 µM. Besides, the TGI was over 100 µM with NCI/ADR-RES ovarian, over 100 µM with RXF 393 renal and 62.6 µM in the assay on OVCAR-3 ovarian.

Regarding `COc1cc(C2c3cc4c(cc3C(NCC(O)CO)C3COC(=O)[C@H]23)OCO4)cc(OC)c1OC` (stereo partly drawn), the TGI in the assay on UACC-257 melanoma was over 100 µM; with HL-60(TB) leukemia, 0.543 µM; with UO-31 renal, over 100 µM; in the assay with SN12C renal it was over 100 µM.

As to `COc1ccccc1C1C(C(=O)Nc2ccccc2)=C(C)NC(C)=C1C(=O)Nc1ccccc1`, the TGI in the assay with UACC-257 melanoma, in the assay on UO-31 renal, in the assay on SF-295 CNS, in the assay on SK-MEL-2 melanoma, with SN12C renal and in the assay on RXF 393 renal was over 100 µM each time. Moreover, the TGI with OVCAR-3 ovarian is over 100 µM.

Turning to `COC(=O)C1=C(C(=O)OC)C2C=CC1C1C(Cl)=C(Cl)C21` (stereo not drawn), the TGI in the assay on UACC-257 melanoma, in the assay on UO-31 renal, with SF-295 CNS, in the assay on SK-MEL-2 melanoma, in the assay on SN12C renal and in the assay with RXF 393 renal was over 100 µM throughout. Also, the TGI in the assay with OVCAR-3 ovarian was over 100 µM.

As for `COc1ccc(CNc2cc(OC)c(OC)c(OC)c2)cc1`, the TGI with UACC-257 melanoma is over 100 µM; in the assay on HL-60(TB) leukemia it was over 24.5 µM; in the assay on UO-31 renal it was over 94.6 µM; in the assay with SF-295 CNS, over 55.1 µM; in the assay on SK-MEL-2 melanoma, over 100 µM; in the assay with SN12C renal, over 100 µM. Moreover, the TGI with RXF 393 renal was 23 µM; in the assay with OVCAR-3 ovarian it was over 48.5 µM.

Consider `CC1=C(C(=O)Nc2ccc([N+](=O)[O-])cc2)C(c2ccc(N(C)C)cc2)C(C(=O)Nc2ccc([N+](=O)[O-])cc2)=C(C)N1`, for which the TGI in the assay on UACC-257 melanoma is 35.6 µM; in the assay on HL-60(TB) leukemia, 38.7 µM; with UO-31 renal it was over 100 µM; in the assay on SF-295 CNS it was 74.6 µM; in the assay on SK-MEL-2 melanoma, 29.8 µM; in the assay on RXF 393 renal, 30.9 µM. Further, the TGI in the assay on OVCAR-3 ovarian was 34.5 µM.

As to `COc1ccc2cc1Oc1ccc(cc1)CC1c3cc(c(OC)cc3CCN1C)Oc1c3c(cc4c1C(C2)N(C)CC4)OCO3` (stereo not drawn), the TGI with HL-60(TB) leukemia came out at 6.66 µM; in the assay on SF-295 CNS it was 21.9 µM; with SK-MEL-2 melanoma, 15.8 µM; in the assay with SN12C renal, 23.7 µM; with RXF 393 renal it was 6.24 µM; in the assay with OVCAR-3 ovarian it was 30 µM.

On to `COc1ccc(OC)c(NC(=O)C(=O)C(C(C)=O)c2nc3ccc(Cl)cc3[nH]c2=O)c1` (stereo not drawn), for which the TGI with UACC-257 melanoma, in the assay with HL-60(TB) leukemia, in the assay on UO-31 renal, in the assay on SF-295 CNS, with SK-MEL-2 melanoma and with SN12C renal was over 50 µM throughout. For the same molecule, the TGI in the assay on RXF 393 renal and in the assay with OVCAR-3 ovarian was over 50 µM throughout.

In the case of `OCc1ccc2[n+](c1)CCC1c3ccccc3NC21` (stereo not drawn), the TGI in the assay with UACC-257 melanoma, with HL-60(TB) leukemia, in the assay with SF-295 CNS, in the assay on SK-MEL-2 melanoma, in the assay on SN12C renal and in the assay on RXF 393 renal was over 300 µM in each case. This molecule also had a TGI in the assay with OVCAR-3 ovarian of over 300 µM.
